Laboratory results from ChEMBL document CHEMBL1201862, “PubChem BioAssay data set” (2004).
Where “and” joins values, the source holds several entries; their conditions need not be identical. Identical values can stand only once.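 Protocol summary: plate cells (96-well), add compound at 5 concentrations, incubate 48 h, interpolate endpoints linearly. GI50: concentration for 50% inhibition of growth.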 Calls of active or inactive are those of the source. Cut-off read from the data, not from the text of the source: active = GI50 up to about 1.1 µM and inactive = higher.

Columns and labels:
Assay in all cases: NCI tumour cell line growth inhibition, 48 h
[1] = system: HL-60
[2] = system: IGROV-1
[3] = system: SW-620
[4] = system: SR
[5] = system: Hs-578T
[6] = system: TK-10
[7] = system: UACC-62
[8] = system: CCRF-CEM
[9] = system: SF-268
[10] = system: HOP-92
[11] = system: MCF7
[12] = system: OVCAR-5
[13] = system: SK-MEL-28
[14] = system: ACHN
[15] = system: Malme-3M
[16] = system: U-251
[17] = system: OVCAR-3
[18] = system: M14
[19] = system: SK-OV-3
[20] = system: SF-539

Measured: GI50

C=C1C(=O)[C@]23C[C@H]1C[C@@H](O)[C@H]2[C@]1(COC3=O)[C@@H](OC(C)=O)CC[C@@](C)(COC(C)=O)[C@H]1C=O [LOXOTHYRIN A]
inactive: [1] 8.59 µM | [2] > 50 µM | [3] 9.29 µM | [4] 28.4 µM | [5] 3.97 µM | [6] > 50 µM | [7] > 50 µM | [8] 7.28 µM | [9] 13.8 µM | [10] 10.2 µM | [11] 17.8 µM | [12] > 50 µM | [13] 19.5 µM | [14] > 50 µM | [15] 11.4 µM | [16] > 50 µM | [17] > 50 µM

O=C1OC(C(O)C(O)C(O)CO)C(O)C1O (centres undefined)
inactive: [18] > 100 µM | [1] > 100 µM | [19] > 100 µM | [2] > 100 µM | [3] > 100 µM | [4] > 100 µM | [5] > 100 µM | [6] > 100 µM | [7] > 100 µM | [8] > 100 µM | [9] > 100 µM | [10] > 100 µM | [11] > 100 µM | [12] > 100 µM | [13] > 100 µM | [14] > 100 µM | [15] > 100 µM | [16] > 100 µM | [20] > 100 µM | [17] > 100 µM

CC(O)(/C=C/c1ccccc1)P(=O)(O)c1ccccc1 (centres undefined)
inactive: [18] > 100 µM | [1] > 100 µM | [19] > 100 µM | [2] > 100 µM | [3] > 100 µM | [4] > 100 µM | [5] > 100 µM | [6] > 100 µM | [7] > 100 µM | [9] > 100 µM | [10] > 100 µM | [11] > 100 µM | [12] > 100 µM | [13] > 100 µM | [14] > 100 µM | [15] > 100 µM | [16] > 100 µM | [20] > 100 µM | [17] > 100 µM

CC1(C)OC2C(CO)OC(n3cnc(N)nc3=O)C2O1 (centres undefined)
inactive: [18] > 100 µM | [1] > 100 µM | [19] > 100 µM | [2] > 100 µM | [3] > 100 µM | [4] > 100 µM | [5] > 100 µM | [6] > 100 µM | [7] > 100 µM | [8] > 100 µM | [9] > 100 µM | [10] > 100 µM | [11] > 100 µM | [12] > 100 µM | [13] > 100 µM | [14] > 100 µM | [16] > 100 µM | [20] > 100 µM | [17] > 100 µM

O=C1CC(C(O)C(O)C(O)CO)CC(=O)N1 (centres undefined)
inactive: [18] > 100 µM | [1] > 100 µM | [2] > 100 µM | [3] > 100 µM | [4] > 100 µM | [5] > 100 µM | [6] > 100 µM | [8] > 100 µM | [9] > 100 µM | [10] > 100 µM | [11] > 100 µM | [12] > 100 µM | [13] > 100 µM | [14] > 100 µM | [15] > 100 µM | [16] > 100 µM | [20] > 100 µM | [17] > 100 µM

O=c1[nH]c(N/N=C\C(O)C(O)C(O)CO)nc2ccccc12 (centres undefined)
inactive: [18] > 100 µM | [1] > 100 µM | [19] > 100 µM | [2] > 100 µM | [3] > 100 µM | [4] > 100 µM and 56.2 µM | [5] > 100 µM | [6] > 100 µM | [7] > 100 µM | [8] > 100 µM | [9] > 100 µM | [10] > 100 µM | [11] > 100 µM | [12] > 100 µM | [13] > 100 µM | [14] > 100 µM | [16] > 100 µM | [20] > 100 µM | [17] > 100 µM

Cc1ccc(-c2cc(O)c3nc4ccccc4n3c2)cc1
inactive: [18] > 100 µM | [1] > 100 µM | [19] > 100 µM | [2] > 100 µM | [3] > 100 µM | [4] > 100 µM | [5] > 100 µM | [6] > 100 µM | [7] > 100 µM | [8] > 100 µM | [9] > 100 µM | [10] > 100 µM | [11] > 100 µM | [13] > 100 µM | [15] > 100 µM | [16] > 100 µM | [20] > 100 µM | [17] > 100 µM

O=C(Cc1ccc(OCc2cccc(Cl)c2)cc1)NO
inactive: [18] 29.4 µM | [1] 12.1 µM | [19] 29.8 µM | [2] 17.5 µM | [3] 31.3 µM | [4] 5.81 µM | [5] 30 µM | [6] 34.8 µM | [7] 18.7 µM | [8] 6.76 µM | [9] 20 µM | [10] 41 µM | [11] 37.8 µM | [12] 30.3 µM | [13] 32.9 µM | [14] 25.2 µM | [16] 28.9 µM | [20] 29.6 µM | [17] 22.2 µM
